Experimental findings from ChEMBL document CHEMBL1128729, “Alpha- and beta-adrenoceptors: from the gene to the clinic. 2. Structure-activity relationships and therapeutic applications” (J Med Chem, 1995) are described below.

Bounds are passed on as bounds.

Test [1] can be described thus: Activity for Alpha-1 adrenergic receptor was assessed from effect on inhibition of neurotransmission in field-stimulated, reserpine-pretreated guinea pig ileum. Format: functional, tissue-based.
Test [2] is described as follows: Activity for Alpha-1 adrenergic receptor was assessed from effect on contraction of reserpine-pretreated guinea pig ileum. It counts as functional, tissue-based.
For test [3], the target named is Beta-2 adrenergic receptor (Cavia porcellus, UniProt Q8K4Z4). As to the kind of experiment: Activity for Beta-2 adrenergic receptor was assessed from effect on relaxation of guinea pig trachea. Format: functional.
Sequence of Beta-2 adrenergic receptor (Q8K4Z4 whole entry): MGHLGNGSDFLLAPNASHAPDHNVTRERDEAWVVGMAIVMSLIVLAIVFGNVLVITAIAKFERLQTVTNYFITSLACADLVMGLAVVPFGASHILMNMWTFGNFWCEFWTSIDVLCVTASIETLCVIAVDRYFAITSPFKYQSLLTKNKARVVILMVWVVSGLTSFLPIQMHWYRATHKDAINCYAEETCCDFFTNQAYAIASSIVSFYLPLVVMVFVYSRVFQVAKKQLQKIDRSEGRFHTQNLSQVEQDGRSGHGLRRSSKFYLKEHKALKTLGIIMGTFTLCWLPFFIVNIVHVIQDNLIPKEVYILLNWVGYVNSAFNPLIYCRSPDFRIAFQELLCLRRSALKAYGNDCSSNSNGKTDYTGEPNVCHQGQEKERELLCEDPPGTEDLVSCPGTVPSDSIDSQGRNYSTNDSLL
Test [4] can be described thus: Effective concentration for inhibition of neurotransmission in field-stimulated, reserpine-pretreated guinea pig ileum. It counts as functional, tissue-based.
The nature of test [5]: Effective dose for on contraction of rabbit aorta. Format: functional, tissue-based.
A short description of test [6]: Effective dose for compound on contraction of reserpine-pretreated guinea pig aorta. Format: functional, tissue-based.
A further test concerns the target T1, Monoamine oxidase (Homo sapiens, UniProt P21397+P27338).
T1 sequence (P21397 whole entry): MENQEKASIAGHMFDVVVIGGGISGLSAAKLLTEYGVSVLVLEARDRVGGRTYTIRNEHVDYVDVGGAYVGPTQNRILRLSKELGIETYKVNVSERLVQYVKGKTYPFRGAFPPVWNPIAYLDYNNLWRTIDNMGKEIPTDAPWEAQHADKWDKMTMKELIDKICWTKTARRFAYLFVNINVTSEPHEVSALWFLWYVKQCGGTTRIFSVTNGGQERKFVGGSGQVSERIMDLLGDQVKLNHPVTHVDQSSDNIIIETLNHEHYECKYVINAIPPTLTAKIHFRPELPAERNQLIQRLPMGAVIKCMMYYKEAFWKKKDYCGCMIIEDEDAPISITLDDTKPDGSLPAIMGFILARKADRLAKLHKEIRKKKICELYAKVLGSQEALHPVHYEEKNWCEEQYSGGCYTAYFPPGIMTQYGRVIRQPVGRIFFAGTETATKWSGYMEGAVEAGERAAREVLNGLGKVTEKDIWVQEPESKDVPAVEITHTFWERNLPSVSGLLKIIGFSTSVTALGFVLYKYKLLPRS
T1 sequence (P27338 whole entry): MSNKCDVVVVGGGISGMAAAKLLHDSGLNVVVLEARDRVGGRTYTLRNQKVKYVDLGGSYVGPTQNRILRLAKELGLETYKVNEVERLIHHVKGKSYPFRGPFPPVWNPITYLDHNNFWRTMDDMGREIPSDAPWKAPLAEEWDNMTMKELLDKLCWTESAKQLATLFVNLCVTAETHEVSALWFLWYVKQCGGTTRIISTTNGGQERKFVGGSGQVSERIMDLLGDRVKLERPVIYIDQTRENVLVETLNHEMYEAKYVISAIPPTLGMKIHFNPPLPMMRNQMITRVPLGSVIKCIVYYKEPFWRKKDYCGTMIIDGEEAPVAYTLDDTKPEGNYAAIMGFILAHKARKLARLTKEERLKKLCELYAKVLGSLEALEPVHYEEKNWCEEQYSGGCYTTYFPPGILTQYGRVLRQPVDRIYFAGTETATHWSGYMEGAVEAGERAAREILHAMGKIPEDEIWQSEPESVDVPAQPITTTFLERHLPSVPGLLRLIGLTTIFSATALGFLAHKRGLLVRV
Description: Binding affinity for imidazoline receptor I-2. Format: protein assay.

A further test concerns the target Nischarin (Homo sapiens, UniProt Q9Y2I1). As to the kind of experiment: Binding affinity for imidazoline receptor I-1.
In test [7] the target is T2, Adrenergic receptor alpha-1 (Rattus norvegicus, UniProt P15823+P23944+P43140).
T2 sequence (P15823 whole entry): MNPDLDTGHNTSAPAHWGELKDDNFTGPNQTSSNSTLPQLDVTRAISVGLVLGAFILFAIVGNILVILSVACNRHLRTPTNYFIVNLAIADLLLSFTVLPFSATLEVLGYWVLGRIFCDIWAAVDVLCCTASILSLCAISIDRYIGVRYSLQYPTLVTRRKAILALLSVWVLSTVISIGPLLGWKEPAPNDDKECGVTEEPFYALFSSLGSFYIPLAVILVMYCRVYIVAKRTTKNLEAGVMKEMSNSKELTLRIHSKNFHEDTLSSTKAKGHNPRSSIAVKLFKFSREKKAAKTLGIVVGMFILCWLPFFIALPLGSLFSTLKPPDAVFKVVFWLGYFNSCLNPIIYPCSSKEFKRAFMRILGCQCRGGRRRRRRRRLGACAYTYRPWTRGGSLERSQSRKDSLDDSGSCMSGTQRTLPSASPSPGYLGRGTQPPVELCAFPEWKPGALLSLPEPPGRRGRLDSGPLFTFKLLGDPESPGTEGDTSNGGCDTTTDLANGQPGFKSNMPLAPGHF
T2 sequence (P23944 whole entry): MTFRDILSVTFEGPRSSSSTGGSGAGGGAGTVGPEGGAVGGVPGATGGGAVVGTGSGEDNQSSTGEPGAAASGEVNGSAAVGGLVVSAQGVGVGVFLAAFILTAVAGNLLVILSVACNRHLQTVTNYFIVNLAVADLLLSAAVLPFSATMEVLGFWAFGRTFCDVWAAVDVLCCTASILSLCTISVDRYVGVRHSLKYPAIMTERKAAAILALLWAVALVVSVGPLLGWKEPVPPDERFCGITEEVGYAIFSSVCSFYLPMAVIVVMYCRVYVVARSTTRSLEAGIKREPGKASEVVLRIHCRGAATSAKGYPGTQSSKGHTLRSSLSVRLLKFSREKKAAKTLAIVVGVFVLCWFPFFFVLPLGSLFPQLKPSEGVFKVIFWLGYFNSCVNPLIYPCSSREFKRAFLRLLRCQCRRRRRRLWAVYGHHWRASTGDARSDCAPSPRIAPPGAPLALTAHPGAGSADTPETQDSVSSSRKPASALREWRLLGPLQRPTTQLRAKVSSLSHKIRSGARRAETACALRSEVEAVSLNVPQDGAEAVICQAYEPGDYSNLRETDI
T2 sequence (P43140 whole entry): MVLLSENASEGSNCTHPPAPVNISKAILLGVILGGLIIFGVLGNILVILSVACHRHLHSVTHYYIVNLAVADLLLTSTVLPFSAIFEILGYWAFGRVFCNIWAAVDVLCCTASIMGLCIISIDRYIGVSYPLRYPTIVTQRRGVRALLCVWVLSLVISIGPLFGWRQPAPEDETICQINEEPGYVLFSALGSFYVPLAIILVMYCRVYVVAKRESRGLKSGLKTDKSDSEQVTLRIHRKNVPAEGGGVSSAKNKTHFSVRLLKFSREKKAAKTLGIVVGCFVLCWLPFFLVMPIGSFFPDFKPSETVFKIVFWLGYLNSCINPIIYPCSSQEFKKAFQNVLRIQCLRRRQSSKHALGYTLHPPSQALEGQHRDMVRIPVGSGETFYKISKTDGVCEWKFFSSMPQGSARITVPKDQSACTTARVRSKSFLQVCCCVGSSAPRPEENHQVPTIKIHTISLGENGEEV
Description: Effective dose for contraction of reserpine-pretreated rat vas deferens. Format: functional.

Test [8] is described as follows: Effective dose for contraction of reserpine-pretreated guinea pig aorta. It counts as functional, tissue-based.
Test [9] can be described thus: Effective dose for inhibition of neurotransmission in field-stimulated, reserpine-pretreated guinea pig ileum. It counts as functional, tissue-based.
Test [10] can be described thus: Effective dose for contraction of rabbit aorta. Format: functional, tissue-based.

Sequence of Nischarin (Q9Y2I1 whole entry): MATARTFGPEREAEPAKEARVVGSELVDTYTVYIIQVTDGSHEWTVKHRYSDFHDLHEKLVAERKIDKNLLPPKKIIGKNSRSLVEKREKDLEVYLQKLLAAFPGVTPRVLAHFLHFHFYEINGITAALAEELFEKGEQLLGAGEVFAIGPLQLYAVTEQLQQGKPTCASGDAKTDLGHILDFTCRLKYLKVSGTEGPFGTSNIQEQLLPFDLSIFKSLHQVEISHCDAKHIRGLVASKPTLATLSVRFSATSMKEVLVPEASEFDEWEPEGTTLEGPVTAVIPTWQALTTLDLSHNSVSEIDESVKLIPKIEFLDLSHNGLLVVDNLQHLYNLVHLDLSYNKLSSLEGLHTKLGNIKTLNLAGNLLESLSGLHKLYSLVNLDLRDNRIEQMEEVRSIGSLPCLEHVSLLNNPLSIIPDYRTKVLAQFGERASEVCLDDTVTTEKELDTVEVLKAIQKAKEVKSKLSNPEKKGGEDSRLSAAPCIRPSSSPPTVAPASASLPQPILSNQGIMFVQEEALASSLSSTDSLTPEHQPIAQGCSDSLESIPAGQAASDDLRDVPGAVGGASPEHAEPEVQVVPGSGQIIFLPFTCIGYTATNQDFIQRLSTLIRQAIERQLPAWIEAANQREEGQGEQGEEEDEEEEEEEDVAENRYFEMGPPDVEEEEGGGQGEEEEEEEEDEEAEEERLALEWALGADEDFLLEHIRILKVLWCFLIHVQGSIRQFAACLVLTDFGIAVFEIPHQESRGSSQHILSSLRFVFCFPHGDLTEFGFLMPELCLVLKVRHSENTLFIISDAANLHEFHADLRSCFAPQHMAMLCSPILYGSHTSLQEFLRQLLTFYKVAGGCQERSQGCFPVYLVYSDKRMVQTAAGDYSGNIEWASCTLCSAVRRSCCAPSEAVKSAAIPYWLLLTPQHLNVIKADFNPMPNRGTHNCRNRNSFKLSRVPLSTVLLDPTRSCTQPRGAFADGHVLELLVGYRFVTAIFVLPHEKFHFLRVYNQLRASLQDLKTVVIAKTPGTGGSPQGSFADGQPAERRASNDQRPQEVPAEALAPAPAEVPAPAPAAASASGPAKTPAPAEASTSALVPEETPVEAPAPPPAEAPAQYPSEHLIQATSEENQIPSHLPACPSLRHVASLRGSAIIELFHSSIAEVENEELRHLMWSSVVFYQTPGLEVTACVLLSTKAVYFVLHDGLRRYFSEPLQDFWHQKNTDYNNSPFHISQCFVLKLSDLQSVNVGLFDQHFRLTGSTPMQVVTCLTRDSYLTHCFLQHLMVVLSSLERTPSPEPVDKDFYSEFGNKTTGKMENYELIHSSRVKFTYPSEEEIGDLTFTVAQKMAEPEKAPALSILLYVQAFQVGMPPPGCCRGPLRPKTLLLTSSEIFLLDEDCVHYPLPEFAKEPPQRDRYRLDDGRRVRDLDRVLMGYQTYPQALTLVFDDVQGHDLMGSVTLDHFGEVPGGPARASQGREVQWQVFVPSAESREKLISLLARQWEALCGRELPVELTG

Take `C[C@@H](N)[C@@H](O)c1ccc(O)c(O)c1`: the EC50 in test [1] worked out at 10000 nM; in test [2], 46800 nM.

On to `NCC(O)c1ccc(O)c(O)c1` (single isomer, unassigned) [NOREPINEPHRINE], for which the EC50 came to 30000 nM in test [3], 14500 nM in test [4], 2000 nM in test [5] and 12000 nM in [6].

Consider `Clc1cccc(Cl)c1NC1=NCCN1` [CLONIDINE], for which the values for the Ki on Monoamine oxidase and on Nischarin were above 100 nM and below 10 nM, respectively.

Regarding `c1ccc2c(c1)OCC(C1=NCCN1)O2` (stereo not given) [IDAZOXAN], the Ki at Monoamine oxidase is given as below 10 nM.

With `C[C@H](N)[C@H](O)c1ccc(O)c(O)c1` [LEVONORDEFRIN], the EC50 came out at 19 nM in test [4] and 776 nM in test [7].

Regarding `NC[C@H](O)c1ccc(O)c(O)c1` [NOREPINEPHRINE], the EC50 in test [3] was 213 nM; in [8], 112 nM; in test [9], 30 nM; in test [10] it was 6.6 nM.

Usually EC50 stands for the concentration giving half of the maximal effect. One may read the Ki as a measure of affinity in units of concentration, obtained from inhibition or displacement. Low values mean higher affinity, high ones lower affinity.
